Source: patent publication US20240245639A1, “Dermal Application of Retinoic Acid Receptor Agonists for Amelioration of Hypertrophic Scar” (Northwestern University, priority 2023, published 2024)

How the values were obtained:
[1] = system: primary human foreskin fibroblasts; experiment: In vitro single-concentration screen of predicted compounds (brightfield, qRT-PCR); format: cell-based; conditions: single concentration, 24 hours, vs vehicle
Description: In order to initially test the identified drugs, we applied each drug or DMSO vehicle control at a single concentration to primary human foreskin fibroblasts in vitro for 24 hours, before harvesting and measuring relative expression of selected myofibroblast marker genes by qRT-PCR. […] None of the drugs tested appeared to affect expression of TGFB1 (the gene encoding transforming growth factor-beta 1) at the examined concentrations.
MATERIALS AND METHODS Materials Emetine dihydrochloride hydrate, homoharringtonine, Ch55 and panobinostat were acquired from Fisher Scientific (Waltham, MA). AZD-7762 was acquired from Selleck Chemicals (Houston, TX). For in vitro work, emetine dihydrochloride hydrate was dissolved in sterile H2O at 50 mM. Homoharringtonine was dissolved in DMSO at 10 mg/mL. Panobinostat was dissolved in DMSO at 425 μM. […] AZD-7762 was dissolved in DMSO at 500 μM. Recombinant human TGF-β1 (Sigma-Aldrich) was dissolved in sterile H2O at 50 µg/mL. All-trans-retinoic acid (Thermo Scientific) was dissolved in DMSO at 10 mM.

[2] = system: primary rabbit dermal fibroblasts; experiment: Ch55 treatment of rabbit dermal fibroblasts (morphology, ACTA2 qRT-PCR); format: cell-based; conditions: 1,000 nM, 24 hours
Description: (§2) Cell culture Primary human neonatal foreskin fibroblasts were obtained from the Skin Biology and Diseases Resource-based Center at Northwestern University. Primary rabbit dermal fibroblasts were isolated from female New Zealand White rabbits via harvesting full-thickness skin biopsies from rabbit ears, digesting overnight in a solution of 5 mg/mL dispase, and subsequently mechanically separating dermis from epidermis. After discarding epidermal tissue, dermal tissue was minced with a razor blade, and fibroblasts were liberated through collagenase-mediated digestion for growth in culture. […] Human fibroblasts and rabbit fibroblasts were cultured on tissue culture plastic (or, for immunofluorescence experiments, on glass coverslips) in DMEM+10% FBS and were serum starved in DMEM+0.1% FBS for 24 hours prior to drug treatments. When indicated, recombinant human TGF-β 1 was included in culture medium at a concentration of 10 ng/mL. Cultures were maintained in a humidified cell culture incubator at 37° C., 5% CO2, and ambient O2. For treatment with drugs and associated vehicle controls, the fraction of DMSO in the media was always maintained at <0.1% (v/v) in order to avoid confounding effects. […]

[3] = system: primary human foreskin fibroblasts; experiment: Antagonism of fibroblast activation in presence or absence of TGF-β1 (qRT-PCR, Western blot, immunofluorescence); format: cell-based; conditions: 1,000 nM Ch55, presence and absence of TGF-β1, 48 hours
Description: RAR Agonist all-Trans Retinoic Acid Antagonizes Myofibroblast Activation We then wished to see whether another RAR agonist could antagonize myofibroblast activation.
(§1) Cells cultured on glass coverslips were fixed in 4% paraformaldehyde for 30 minutes at room temperature. Cells were blocked in 10% normal goat serum and incubated overnight at 4° C. in solutions of the following primary antibodies: Rabbit monoclonal α-human α-SMA (1:500 dilution, catalog #192455, Cell Signaling Technology, Danvers M A) or mouse α-human COL1A1 (1:1000 dilution, catalog #M-38c, DSHB, Iowa City, IA). The following day, cells were incubated in 1:200 diluted solutions of goat-α-rabbit IgG or donkey-α-mouse IgG Alexafluor 488-conjugated secondary antibodies (A11034 or A21202, Invitrogen) containing Alexafluor 568-conjugated phalloidin (A12380, Invitrogen) for 2 hours in the dark at room temperature, before a 20 minute counterstain in 500 ng/mL DAPI. Coverslips were mounted onto slides in the dark using Fluoro Gel with DABCO (Electron Microscopy Sciences, Hatfield, PA) and imaged on an EVOS-FL imaging system (ThermoFisher).
Harvested scar tissues were incubated in 0.5M ammonium thiocyanate for 20 minutes, followed by mechanical separation of dermis and epidermis using a dissecting microscope. Isolated dermal tissues were minced with a razor blade, submerged in RIPA buffer, and homogenized in the presence of 2 mm zirconia beads using a MagNA Lyser (Roche, Basel, Switzerland). Alternatively, cell culture samples were detached from the culture surface by trypsinization, collected by centrifugation, and lysed in RIPA buffer. Protein concentrations of cell culture and tissue samples were determined using a DC protein assay (BioRad). Five micrograms of total protein were loaded onto polyacrylamide gels and subjected to SDS-PAGE before transfer to nitrocellulose membranes, blocking with 5% dry milk in TBS-T, and probing with target-specific primary antibodies overnight. Species-specific secondary antibody solutions were added to membranes, and chemiluminescent signal was developed with Amersham ECL Western blotting detection reagent using X-ray film.
Primary antibodies used were rabbit anti-α-SMA (1:1000, 19245S, Cell Signaling Technology), rabbit anti-collagen I (1:1000, ab34710, Abcam), mouse anti-collagen I (1:1000, C2456, Sigma-Aldrich), and mouse anti-GAPDH (1:5000, MA5-15738, Invitrogen). Secondary antibodies utilized were HRP goat anti-rabbit IgG(H+L) and horse anti-mouse IgG(H+L) (Vector Laboratories, Newark, CA), both used at 1:5000.

[4] = system: primary human HTS fibroblasts; experiment: Collagen I deposition in hypertrophic scar fibroblasts (Western blot, immunofluorescence); format: cell-based; conditions: HTS fibroblasts, 1,000 nM Ch55, presence and absence of TGF-β1, 48 hours
Description: Since overproduction of collagen is characteristic of fibroblasts in tissue fibrosis, including hypertrophic scar and keloid, we wished to determine whether Ch55 also affects deposition of collagen I by these fibroblasts.
as §1, with “Coverslips were mounted onto slides in the dark using Fluoro Gel with DABCO (Electron Microscopy Sciences, Hatfield, PA) and imaged on an EVOS-FL imaging system (ThermoFisher).” left out
Harvested scar tissues were incubated in 0.5M ammonium thiocyanate for 20 minutes, followed by mechanical separation of dermis and epidermis using a dissecting microscope. […] Protein concentrations of cell culture and tissue samples were determined using a DC protein assay (BioRad). […]

[5] = system: primary human foreskin fibroblasts; experiment: RNA-seq expression profiling of Ch55 effects; format: cell-based; conditions: 1,000 nM Ch55, 24 hours
Source text: We then used goseq (Young et al., 2010) to query the KEGG database with the […] signature and the TGF-β-antagonizing signature. Extraction of KEGG annotations and associated pathways enriched in the […] signature (FIG. 3D) tended to refer to either general categories (e.g. “proteasome,” “cell cycle,” “phagosome”) or categories relevant to other specific cell types (e.g. “Epithelial cell signaling in H. pylori infection,” “Collecting duct acid secretion,” “Axon guidance”). […] We next computed normalized gene expression values for the DEGs extracted from the TGF-β-antagonizing signature and overlaid Ch55-induced relative expression effects on potentially fibrosis-relevant pathways of interest using Pathview Web (Luo et al., 2017).
Purified RNA harvested from primary cultured human foreskin fibroblasts pooled from three donors underwent TruSeq stranded mRNA-seq library preparation at the Northwestern University NUSeq core facility, followed by paired-end sequencing on an Illumina HiSeq 4000. Raw FASTQ files were imported into Galaxy (Jalili et al., 2020). Reads were trimmed using Trimmomatic (Bolger et al., 2014) utilizing default parameters, prior to aligning to the human genome (hg38 construction) using HISAT2 (Kim et al., 2019). Reads were assigned to genomic features using featureCounts (Liao et al., 2014), and differential expression among groups was determined, and principal component analysis constructed, using DESeq2 (Love et al., 2014) with multiple comparison adjustment performed by the Benjamini-Hochberg correction (Benjamini and Hochberg, 1995). Differentially-expressed genes were defined as false discovery rate-adjusted (FDR) P<0.05. Pathway analysis on KEGG databases (Kanehisa and Goto, 2000) were performed using goseq (Young et al., 2010) and Pathview Web (Luo et al., 2017). Z-scores were calculated from normalized count values and used to construct heatmaps. FPKM values were estimated using Stringtie (Pertea et al., 2015). Raw RNA-sequence data are available through the National Center for Biotechnology Information Sequence Read Archive accession number PRJNA921850, the contents of which is incorporated by reference in its entirety.

[6] = system: primary human foreskin fibroblasts; conditions: second donor, 1,000 nM, 24 hours
Description: as §2

CC(C)(C)c1cc(C(=O)/C=C/c2ccc(C(=O)O)cc2)cc(C(C)(C)C)c1 [Ch55]
ACTA2 expression (qRT-PCR) [1]: clear and consistent downregulation
CCN2 expression (qRT-PCR) [1]: clear and consistent downregulation
MMP1 expression (qRT-PCR) [1]: without downregulating
SERPINE1 expression (qRT-PCR) [1]: clear and consistent downregulation
effects on morphology and ACTA2 expression [2]: comparable effects
α-SMA protein in filamentous actin stress fibers (immunofluorescence) [3]: loss of α-SMA protein from filamentous actin stress fibers
collagen I deposition (Western blot, immunofluorescence) [4]: dramatic reduction
genes known to be targets or regulators of retinoic acid signaling (RNA-seq) [5]: broad upregulation
myofibroblast marker genes (RNA-seq) [5]: significantly downregulated
LRRC15+/Lrrc15+ signature-enriched genes significantly downregulated (number of genes) ([5]; RNA-seq): 67/117
LRRC15+/Lrrc15+ signature-enriched genes significantly downregulated (share of genes) ([5]; RNA-seq): ~57%
effects on morphology and gene expression in fibroblasts of another tissue donor [6]: comparable effects
